Assay results as given in patent US8710071B2, “Compounds, compositions and methods for reducing lipid levels” (CVI Pharmaceuticals Limited, priority 2008, dated 2014).

Key:
[1] = test system: hyperlipidemic rabbits; assay: Lipid lowering effects and blood chemistry in hyperlipidemic rabbits; conditions: for Body weight: after 14 days of drug treatment; for Body weight / ALP / ALT / AST / CK / CREA / GLU / HDL-C / LDH / LDL-C / TC / TG: mean, n = 6; for serum total cholesterol levels, treatment day 0: day 0 (before the drug treatment), n = 6, in mmol/L (unit assumed); for serum total cholesterol levels, treatment day 0 / serum total cholesterol levels, treatment day 4 / serum total cholesterol levels, treatment day 7 / serum total cholesterol levels, treatment day 10 / serum total cholesterol levels, treatment day 14: mean ± SD; for serum total cholesterol levels, treatment day 4: day 4, oral gavage once a day; for serum total cholesterol levels, treatment day 4 / serum total cholesterol levels, treatment day 7: 128(+)/128(−) 30 mg/kg, SMV/ATV 3 mg/kg; for serum total cholesterol levels, treatment day 7: day 7, oral gavage once a day; for serum total cholesterol levels, treatment day 10: day 10, doses increased after day 7 to 60 mg/kg (128(+)/128(−)) and 10 mg/kg (SMV/ATV), in mmol/L (unit assumed); for serum total cholesterol levels, treatment day 14: day 14, doses increased after day 7 to 60 mg/kg (128(+)/128(−)) and 10 mg/kg (SMV/ATV); for ALP / ALT / AST / CK / CREA / GLU / HDL-C / LDH / LDL-C / TC / TG: serum after 14 days of drug treatment
Protocol: (§4) Forty-two male Japanese rabbits were fed the cholesterol enriched rabbit diet for two weeks to induce hypercholesterolemia. […] Serum samples were collected at day 0 (before the drug treatment) and day 7. […] All tested animals were sacrified at the end of a total of 14 days treatment and serum samples were analyzed for TC, LDL-C, TG, and HDL-C. In addition to lipid profiles, a number of biochemical parameters were also analyzed to aseesee the effects of drug treatments on liver function, muscle function, kidney function, and heart function.

[2] = test system: acetyl coenzyme A carboxylase (ACC); assay: ACC phosphorylation in HepG2 cells, Western blot; type: cell-based, human; conditions: 20 μM, 1, 2, and 3 days (FIG. 12)
Protocol: HepG2 cells were treated with 20 μg/ml14R-(+)-THP for 0.5, 2, or 8 hours. Cells were lysed, and 50 μg protein from each sample was subjected to SDS-PAGE, followed by Western blotting using anti-phosphorylated ACC (Cell Signaling) and subsequently reprobed with antibody against β-actin.
(§1) Cells were harvested after 1, 2, and 3 days treatment and western blot analysis was conducted using antibodies directed to LDLR and PCSK9. Chicken anti-LDLR was purchased from Abeam, the mouse anti-PCSK9 was purchased from Cayman Chemicals, and anti-pACC was purchased from Cell Signaling.

[3] = test system: PCSK9; assay: PCSK9 protein expression in HepG2 cells, Western blot; type: cell-based, human; conditions: 20 μM, 1, 2, and 3 days
Protocol: as §1
(§2) To determine whether the stimulatory effects of statins on LDLR protein expression could be enhanced by some new compounds invented herein, HepG2 cells were untreated or treated with a low dose of rosuvastatin (RSV) at 0.3 and 1 uM concentration in the absence or the presence of Compound 127(+), or treated with low concentrations of Compound 127(+) alone for 2 days. Western blot analysis was conducted to examine LDLR and PCSK9 protein levels. Compound 127(+) is the single enantiomer of compound 127 with a positive optical rotation. […] Furthermore, the inducing effects of RSV on PCSK9 protein levels were anatagonized by compound 127(+).
(§3) Chicken anti-LDLR was purchased from Abeam and the mouse anti-PCSK9 was purchased from Cayman Chemicals. HepG2 cells cultured in 60-mm dishes were incubated overnight in medium containing 0.5% fetal bovine serum prior to the addition of compounds at 20 uM concentration for 1-3 days. Total cell lysate was isolated and 50 μg of protein was separated on SDS-PAGE and transferred to nitrocellulose membrane for immunoblotting with anti-LDLR, anti-PCSK9, and anti-p-ACC.

[4] = test system: LDLR; assay: LDLR protein expression in HepG2 cells, Western blot; type: cell-based, human; conditions: 20 μM, 1, 2, and 3 days
Protocol: as §1, §2, §3

[5] = test system: hyperlipidemic rabbits; conditions: rabbit, in vivo
Protocol: as §4

[6] = test system: LDLR mRNA; assay: LDLR mRNA expression in HepG2 cells, quantitative real-time RT-PCR; type: cell-based, human; conditions: indicated concentrations, 24 hours (FIG. 15A)
Protocol: Activities of some compounds of Formulas I, II, III, and IV on LDLR mRNA expression were determined. HepG2 cells were treated with new compounds individually at a dose less than or equal to 10 μM for 24 hours. Total RNA was harvested for quantitative real-time RT-PCR analysis using the method described in Example 16B. […] In these experiments, berberine chloride was included for comparison.
The time-dependent effects of compounds of Formula I, II, III, and IV on the upregulation of LDLR mRNA and the inhibition of PCSK9 mRNA expression were examined (Horton J D, Cohen J C, Hobbs H I T. “Molecular biology of PCSK9: its role in LDL metabolism” TRENDS in Biochemical Sciences 2007; 32:71-77). HepG2 cells were treated with new compounds individually at 20 uM dose for 1 day, 2 day, and 3 days. Total RNA was isolated and 2 μg was used to generate cDNA in a reaction containing random primers and M-MLV at 37° C. for 1 hour in a volume of 25 μl. Real-time PCR was performed on the cDNA using MCEP REALPLEX 2 SYSTEM (Eppendorf) and Universal MasterMix (Applied Biosystems). Human LDLR, PCSK9, and GAPDH Pre-Developed TaqMan Assay Reagents (Applied Biosystems) were used to assess the levels of mRNA expressions in HepG2. The levels of LDLR mRNA or PCSK9 mRNA were normalized to that of GAPDH. Each RNA samples was assayed in triplicate. The abundance of LDLR mRNA or PCSK9 mRNA in untreated cells was defined as 1, and the amounts of LDLR mRNA or PCSK9 from compound-treated cells were plotted relative to that value (FIG. 10). The data shown are mean±s.d.
Total RNA was harvested for quantitative real-time RT-PCR analysis using method described in Examples 16B.
The effects of 23 compounds on the mRNA expressions of LDLR and PCSK9 were examined using quantitative real-time RT-PCR assays. HepG2 cells were treated with various compounds at 10 and 40 uM concentrations for 24 hours. Total RNA was isolated and […] was used to generate cDNA in a reaction containing random primers and M-MLV at 37° C. for 1 h in a volume of 25 μl. Real-time PCR was performed on the cDNA using MCEP REALPLEX 2 SYSTEM (Eppendorf) and Universal MasterMix (Applied Biosystems). Human LDLR, PCSK9, and GAPDH Pre-Developed TaqMan Assay Reagents (Applied Biosystems) were used to assess the levels of mRNA expressions in HepG2. The levels of LDLR and PCSK9 mRNA were normalized to that of GAPDH. Each RNA samples was assayed in duplicate. The fold activity was calculated by dividing mRNA abundance in compound treated cells with that of control.

[7] = test system: PCSK9 mRNA; assay: PCSK9 mRNA expression in HepG2 cells, quantitative real-time RT-PCR; type: cell-based, human; conditions: indicated concentrations, 24 hours (FIG. 15B)
Protocol: The time-dependent effects of compounds of Formula I, II, III, and IV on the upregulation of LDLR mRNA and the inhibition of PCSK9 mRNA expression were examined (Horton J D, Cohen J C, Hobbs H I T. “Molecular biology of PCSK9: its role in LDL metabolism” TRENDS in Biochemical Sciences 2007; 32:71-77). HepG2 cells were treated with new compounds individually at 20 uM dose for 1 day, 2 day, and 3 days. Total RNA was isolated and 2 μg was used to generate cDNA in a reaction containing random primers and M-MLV at 37° C. for 1 hour in a volume of 25 μl. Real-time PCR was performed on the cDNA using MCEP REALPLEX 2 SYSTEM (Eppendorf) and Universal MasterMix (Applied Biosystems). Human LDLR, PCSK9, and GAPDH Pre-Developed TaqMan Assay Reagents (Applied Biosystems) were used to assess the levels of mRNA expressions in HepG2. The levels of LDLR mRNA or PCSK9 mRNA were normalized to that of GAPDH. Each RNA samples was assayed in triplicate. […]
Total RNA was harvested for quantitative real-time RT-PCR analysis using method described in Examples 16B. […]
The effects of 23 compounds on the mRNA expressions of LDLR and PCSK9 were examined using quantitative real-time RT-PCR assays. […] The fold activity was calculated by dividing mRNA abundance in compound treated cells with that of control.

| SMILES | Body weight [1] [kg] | serum total cholesterol levels, treatment day 0 [1] | serum total cholesterol levels, treatment day 4 [1] | serum total cholesterol levels, treatment day 7 [1] | serum total cholesterol levels, treatment day 10 [1] | serum total cholesterol levels, treatment day 14 [1] | ALP [1] [IU/L] | ALT [1] [IU/L] | AST [1] [IU/L] | CK [1] [U/L] | CREA [1] [µmol/L] | GLU [1] [mmol/L] | HDL-C [1] [mmol/L] | LDH [1] [IU/L] | LDL-C [1] [mmol/L] | TC [1] [mmol/L] | TG [1] [mmol/L] | phosphorylation of ACC [2] | expression of PCSK9 (protein) [3] | LDLR protein levels [4] | further results |
| --- | --- | --- | --- | --- | --- | --- | --- | --- | --- | --- | --- | --- | --- | --- | --- | --- | --- | --- | --- | --- | --- |
| COc1ccc2c(c1)CCN1Cc3c(ccc(OC)c3OS(=O)(=O)c3cccc(F)c3)CC21 (single isomer, unassigned) [128(+)] | 2.6 | 28.6 ± 6.7 | 31.9 ± 7.5 | 33.9 ± 7.2 | 33.8 ± 7.8 | 34.2 ± 7.4 | 165.2 | 68.7 | 20.8 | 1172.3 | 97.2 | 7.9 | 3.6 | 47.7 | 29.7 | 34.2 | 1.0 | induced ACC phosphorylation | strongly inhibited | effectively increased | – |
| COc1ccc2c(c1)CCN1Cc3c(ccc(OC)c3OS(=O)(=O)c3cccc(F)c3)CC21 (single isomer, unassigned) [128(−)] | 2.7 | 28.5 ± 6.3 | 29.9 ± 8.0 | 29.0 ± 7.9 | 27.9 ± 5.2 | 29.7 ± 4.9 | 155.5 | 50.2 | 20.8 | 997.5 | 105.2 | 7.9 | 3.5 | 50.3 | 24.4 | 29.7 | 0.9 | induced ACC phosphorylation | strongly inhibited | effectively increased | TC and LDL-C reduction ([1]; 14 days treatment, summary in words): strong TC and LDL-C reduction; adverse effect / toxicities [5]: absence of any adverse effect |
| COc1cc2c(cc1OC)C1Cc3ccc(OC)c(OS(=O)(=O)c4ccccc4)c3CN1CC2 (centres unmarked) [Compound 91, 2,3,10-trimethoxy-5,6,7,8,13,13a-hexahydroisoquinolino[2,1-b]isoquinolin-9-yl benzenesulfonate] | – | – | – | – | – | – | – | – | – | – | – | – | – | – | – | – | – | – | – | – | LDLR mRNA expression [6]: dose-dependently increases; PCSK9 mRNA expression [7]: inhibits |
